Data taken from publication PMC5366949, “The toxicity of angiotensin converting enzyme inhibitors to larvae of the disease vectors Aedes aegypti and Anopheles gambiae” (Scientific Reports, 2017).
Where two headings read alike, the source gives them in different places.

What was measured:
[1] = system: T1, An. gambiae larval ACE (soluble peptidyl dipeptidase activity; one or both of AnoACE2 and AnoACE3); assay: fluorogenic peptidase assay, larval high-speed supernatant; format: biochemical; details: substrate Abz-Phe-Arg-Lys(Dnp)-Pro-OH about 25 uM, pH 7.5, 50 mM NaCl, 10 uM ZnCl2, 20 C, 10 min pre-incubation, read-out: Anopheles gambiae / IC50
T1 construct: native; 55,000 g supernatant of whole 3rd instar larval homogenate, not purified; AnoACE2 and/or AnoACE3 inferred by the authors from soluble activity and larval expression
Description: fluorogenic peptidase assay, larval high-speed supernatant on An. gambiae larval ACE (soluble peptidyl dipeptidase activity; one or both of AnoACE2 and AnoACE3)

[2] = system: T2, Ae. aegypti larval ACE (soluble peptidyl dipeptidase activity); assay: as above; format: biochemical; details: substrate Abz-Phe-Arg-Lys(Dnp)-Pro-OH about 25 uM, pH 7.5, 50 mM NaCl, 10 uM ZnCl2, 20 C, 10 min pre-incubation, read-out: Aedes aegypti / IC50
T2 construct: native; 55,000 g supernatant of whole 3rd instar larval homogenate, not purified; gene(s) not identified for this species
Description: fluorogenic peptidase assay, larval high-speed supernatant on Ae. aegypti larval ACE (soluble peptidyl dipeptidase activity)

| Compound | IC50 [1] | IC50 [2] | IC50 ([1]; pro-drug ester of fosinoprilat) | IC50 ([2]; pro-drug ester of fosinoprilat) |
| --- | --- | --- | --- | --- |
| C[C@H](CS)C(=O)N1CCC[C@H]1C(=O)O [captopril] | 0.0167 µM | 0.00247 µM |  |  |
| CCC(=O)O[C@@H](O[P@](=O)(CCCCc1ccccc1)CC(=O)N1C[C@H](C2CCCCC2)C[C@H]1C(=O)O)C(C)C [fosinopril] |  |  | 0.326 µM | 0.373 µM |
| O=C(O)[C@@H]1C[C@@H](C2CCCCC2)CN1C(=O)CP(=O)(O)CCCCc1ccccc1 [fosinoprilat] | 0.0352 µM | 0.00661 µM |  |  |
